Data on eleven molecules can be found in ChEMBL document CHEMBL1149567, “Synthesis and pharmacological evaluation of condensed heterocyclic 6-substituted-1,2,4-triazolo[3,4-b]-1,3,4-thiadiazole derivatives of naproxen” (Bioorg Med Chem Lett, 2007).

Series [1] deals with Rattus norvegicus. The experiment in a line: Antiinflammatory activity against carrageenan-induced paw edema in po dosed rat after 4 hrs. It counts as functional. (In general: In the carrageenan paw model, swelling and tenderness develop within hours.)
Series [2] relates to Rattus norvegicus. The experiment in a line: Toxicity assessed as ulcerogenic activity in po dosed rat. In kind it is organism-based. Conditions: in vivo.
The species named for series [3] is Rattus norvegicus. Nature of the series: Effect on lipid peroxidation in rat gastric mucosa assessed as malondialdehyde level per 100 mg of tissue. It counts as functional, organism-based.
In series [4] the test system is Rattus norvegicus. Nature of the series: Analgesic activity in po dosed rat. It counts as functional.
Series [5] deals with Rattus norvegicus. The experiment in a line: Analgesic activity in rat at 30 mg/kg, po. The conditions noted are these: read-out: Inhibition.
For series [6], the system named is Rattus norvegicus. Nature of the series: Antiinflammatory activity against carrageenan-induced paw edema in rat at 30 mg/kg, po after 4 hrs. Conditions: read-out: Inhibition.

Consider `COc1ccc2cc(C(C)c3nnc4sc(-c5ccccc5N)nn34)ccc2c1` (stereo unspecified), for which the Inhibition – broadly, the share of the control response that was lost under treatment – in the series on Rattus norvegicus [1] worked out at 54.54%.

On to `CCCCNc1nn2c(C(C)c3ccc4cc(OC)ccc4c3)nnc2s1` (stereo unspecified), for which the Inhibition with Rattus norvegicus [1] is reported as 40.9%.

`COc1ccc2cc(C(C)c3nnc4sc(-c5ccc(Cl)cc5)nn34)ccc2c1` (stereo unspecified): the Inhibition in the series with Rattus norvegicus [1] was found to be 80.3%; with Rattus norvegicus [4], 26.7%. The UI with Rattus norvegicus [2] worked out at 0.583. Moreover, the Activity in the series filed under Rattus norvegicus [3] turned out to be 5.27 nmol.

Regarding `COc1ccc2cc(C(C)c3nnc4sc(Nc5ccc(F)cc5)nn34)ccc2c1` (stereo unspecified), the Inhibition in the series with Rattus norvegicus [1] is given as 40.14%.

`COc1ccc2cc(C(C)c3nnc4sc(-c5ccccc5)nn34)ccc2c1` (stereo unspecified): the Inhibition in the series on Rattus norvegicus [1] was determined as 81.05%; in the series on Rattus norvegicus [4] it was 89.5%. For the same molecule, the UI with Rattus norvegicus [2] was 0.5. Besides, in the series filed under Rattus norvegicus [3], the Activity worked out at 4.86 nmol.

For the molecule `COc1ccc2cc(C(C)c3nnc4sc(Nc5ccc(C)cc5C)nn34)ccc2c1` (stereo unspecified), the Inhibition with Rattus norvegicus [1] is 76.51%; with Rattus norvegicus [4] it was 33.3%. Further, the UI in the series with Rattus norvegicus [2] turned out to be 0.833. In addition, the Activity in the series listed under Rattus norvegicus [3] was 6.11 nmol.

Turning to `COc1ccc2cc(C(C)c3nnc4sc(COc5ccc(Cl)cc5Cl)nn34)ccc2c1` (stereo unspecified), the Inhibition with Rattus norvegicus [1] is reported as 78.02%; in the series on Rattus norvegicus [4] it was 80.3%. For the same molecule, in the series with Rattus norvegicus [2], the UI is 0.667. Further, the Activity in the series filed under Rattus norvegicus [3] was determined as 5.38 nmol.

`COc1ccc2cc(C(C)c3nnc4sc(Nc5ccccc5)nn34)ccc2c1` (stereo unspecified) displayed an Inhibition in the series on Rattus norvegicus [1] of 43.93%.

On to `COc1ccc2cc(C(C)c3nnc4sc(-c5ccc(N)cc5)nn34)ccc2c1` (stereo unspecified), for which the Inhibition in the series on Rattus norvegicus [1] amounted to 78.02%; in the series on Rattus norvegicus [4], 58.1%. The UI with Rattus norvegicus [2] is recorded as 0.833. In addition, the Activity in the series listed under Rattus norvegicus [3] worked out at 5.85 nmol.

With `COc1ccc2cc([C@H](C)C(=O)O)ccc2c1` [NAPROXEN], the inhibition in vivo at 30 mg/kg in the series with Rattus norvegicus [5] is 73.5%; in the series on Rattus norvegicus [6], 81.8%. Moreover, the Activity in the series filed under Rattus norvegicus [3] worked out at 9.04 nmol.

Consider `COc1ccc2cc(C(C)c3nnc4sc(-c5ccc(Cl)cc5Cl)nn34)ccc2c1` (stereo unspecified), for which the Inhibition in the series with Rattus norvegicus [1] turned out to be 68.93%; in the series with Rattus norvegicus [4], 37.2%. In addition, in the series with Rattus norvegicus [2], the UI stood at 0.75. The Activity in the series listed under Rattus norvegicus [3] was found to be 5.63 nmol.
